The record followed here is PubChem BioAssay (NCI).

Some test systems named below: OVCAR-3 ovarian; COLO 205 colon; TK-10 renal; SF-268 CNS; UACC-62 melanoma; HCC-2998 colon; HL-60(TB) leukemia; SK-MEL-28 melanoma; M14 melanoma; CCRF-CEM leukemia.
Common to all, as to assay: NCI tumour cell line growth inhibition, 48 h

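Interpolation was linear, between the two tested concentrations surrounding the appropriate level; five concentrations were tested over 48 hours in 96-well plates. TGI marks complete inhibition of growth.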 A value given as a limit tells only on which side of the number the result lay.

With `CO/N=C(\C)c1cccc(Nc2nc3ccccc3c3occc23)c1`, the TGI was determined as 33.1 µM with OVCAR-3 ovarian; 24.5 µM in the experiment with COLO 205 colon; 26 µM with TK-10 renal; 32.5 µM in the experiment on SF-268 CNS; 2.18 µM with UACC-62 melanoma; 28.8 µM in the experiment on HCC-2998 colon. Further, the TGI with HL-60(TB) leukemia was determined as 59.5 µM; in the experiment on SK-MEL-28 melanoma, 27.6 µM; with M14 melanoma, 30.7 µM; with CCRF-CEM leukemia it was 37.7 µM.

Consider `CCO[C@]12CCC[C@H]1[C@@H]1C(=O)c3ccccc3C(=O)C1=C(C)O2`, for which the TGI with OVCAR-3 ovarian was 50.3 µM; with COLO 205 colon, over 100 µM; in the experiment with TK-10 renal, over 100 µM; in the experiment with SF-268 CNS it was over 100 µM; with UACC-62 melanoma, over 100 µM; in the experiment with HCC-2998 colon, over 100 µM. The TGI in the experiment with HL-60(TB) leukemia, in the experiment with SK-MEL-28 melanoma, in the experiment with M14 melanoma and in the experiment on CCRF-CEM leukemia was over 100 µM each time.
